# From PubChem BioAssay (NCI)
#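 GI50: concentration for 50% inhibition of growth. TGI: concentration producing complete growth inhibition.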
# Legend:
# Assay in all cases: DTP human tumour cell line panel, 384-well format
# 786-0 renal = system: 786-0 renal
# A498 renal = system: A498 renal
# A549 NSCLC = system: A549 NSCLC
# ACHN renal = system: ACHN renal
# BT-549 breast = system: BT-549 breast
# CAKI-1 renal = system: CAKI-1 renal
# CCRF-CEM leukemia = system: CCRF-CEM leukemia
# DU-145 prostate = system: DU-145 prostate
# HCC-2998 colon = system: HCC-2998 colon
# HCT-116 colon = system: HCT-116 colon
# HCT-15 colon = system: HCT-15 colon
# HL-60(TB) leukemia = system: HL-60(TB) leukemia
# HOP-62 NSCLC = system: HOP-62 NSCLC
# HS 578T breast = system: HS 578T breast
# HT29 colon = system: HT29 colon
# IGROV1 ovarian = system: IGROV1 ovarian
# LOX IMVI melanoma = system: LOX IMVI melanoma
# M14 melanoma = system: M14 melanoma
# MALME-3M melanoma = system: MALME-3M melanoma
# MCF7 breast = system: MCF7 breast
# MDA-MB-231 breast = system: MDA-MB-231 breast
# MDA-MB-435 melanoma = system: MDA-MB-435 melanoma
# MDA-MB-468 breast = system: MDA-MB-468 breast
# MOLT-4 leukemia = system: MOLT-4 leukemia
# NCI-H226 lung = system: NCI-H226 lung
# NCI-H322M lung = system: NCI-H322M lung
# NCI-H460 NSCLC = system: NCI-H460 NSCLC
# NCI-H522 lung = system: NCI-H522 lung
# OVCAR-3 ovarian = system: OVCAR-3 ovarian
# OVCAR-4 ovarian = system: OVCAR-4 ovarian
# OVCAR-5 ovarian = system: OVCAR-5 ovarian
# OVCAR-8 ovarian = system: OVCAR-8 ovarian
# PC-3 prostate = system: PC-3 prostate
# RPMI-8226 leukemia = system: RPMI-8226 leukemia
# RXF 393 renal = system: RXF 393 renal
# SF-268 CNS = system: SF-268 CNS
# SF-539 CNS = system: SF-539 CNS
# SK-MEL-28 melanoma = system: SK-MEL-28 melanoma
# SN12C renal = system: SN12C renal
# SNB-19 CNS = system: SNB-19 CNS
# SNB-75 CNS = system: SNB-75 CNS
# SR leukemia = system: SR leukemia
# SW-620 colon = system: SW-620 colon
# T-47D breast = system: T-47D breast
# U251 glioblastoma = system: U251 glioblastoma
# UACC-257 melanoma = system: UACC-257 melanoma
# UACC-62 melanoma = system: UACC-62 melanoma
# UO-31 renal = system: UO-31 renal
smiles,measurement,setting,value
NC(=O)c1cccc2cn(-c3ccc([C@@H]4CCCNC4)cc3)nc12,GI50,786-0 renal,12.7 µM
same,TGI,786-0 renal,26.3 µM
same,GI50,A498 renal,16.7 µM
same,TGI,A498 renal,30.5 µM
same,GI50,A549 NSCLC,11.8 µM
same,TGI,A549 NSCLC,24.5 µM
same,GI50,ACHN renal,9.72 µM
same,TGI,ACHN renal,21.7 µM
same,GI50,BT-549 breast,9.95 µM
same,TGI,BT-549 breast,22 µM
same,GI50,CAKI-1 renal,11.1 µM
same,TGI,CAKI-1 renal,23.3 µM
same,GI50,CCRF-CEM leukemia,1.83 µM
same,TGI,CCRF-CEM leukemia,3.71 µM
same,GI50,DU-145 prostate,4.89 µM
same,TGI,DU-145 prostate,16.1 µM
same,GI50,HCC-2998 colon,14 µM
same,TGI,HCC-2998 colon,27.1 µM
same,GI50,HCT-116 colon,4.73 µM
same,TGI,HCT-116 colon,18.3 µM
same,GI50,HCT-15 colon,11.9 µM
same,TGI,HCT-15 colon,24.8 µM
same,GI50,HL-60(TB) leukemia,1.85 µM
same,TGI,HL-60(TB) leukemia,3.88 µM
same,GI50,HOP-62 NSCLC,3.12 µM
same,TGI,HOP-62 NSCLC,11.3 µM
same,GI50,HS 578T breast,10.1 µM
same,TGI,HS 578T breast,21.9 µM
same,GI50,HT29 colon,13.4 µM
same,TGI,HT29 colon,26.6 µM
same,GI50,IGROV1 ovarian,12.9 µM
same,TGI,IGROV1 ovarian,27.2 µM
same,GI50,LOX IMVI melanoma,7.47 µM
same,TGI,LOX IMVI melanoma,19.9 µM
same,GI50,M14 melanoma,4.68 µM
same,TGI,M14 melanoma,15.8 µM
same,GI50,MALME-3M melanoma,12.8 µM
same,TGI,MALME-3M melanoma,25.6 µM
same,GI50,MCF7 breast,6.48 µM
same,TGI,MCF7 breast,18.8 µM
same,GI50,MDA-MB-231 breast,14.7 µM
same,TGI,MDA-MB-231 breast,29 µM
same,GI50,MDA-MB-435 melanoma,17.5 µM
same,TGI,MDA-MB-435 melanoma,33.6 µM
same,GI50,MDA-MB-468 breast,1.49 µM
same,TGI,MDA-MB-468 breast,4.17 µM
same,GI50,MOLT-4 leukemia,1.49 µM
same,TGI,MOLT-4 leukemia,2.83 µM
same,GI50,NCI-H226 lung,12.5 µM
same,TGI,NCI-H226 lung,25.2 µM
same,GI50,NCI-H322M lung,18.2 µM
same,TGI,NCI-H322M lung,34.1 µM
same,GI50,NCI-H460 NSCLC,3.06 µM
same,TGI,NCI-H460 NSCLC,13.4 µM
same,GI50,NCI-H522 lung,15.1 µM
same,TGI,NCI-H522 lung,29 µM
same,GI50,OVCAR-3 ovarian,18.3 µM
same,TGI,OVCAR-3 ovarian,33 µM
same,GI50,OVCAR-4 ovarian,25.2 µM
same,TGI,OVCAR-4 ovarian,44.5 µM
same,GI50,OVCAR-5 ovarian,24 µM
same,TGI,OVCAR-5 ovarian,59.6 µM
same,GI50,OVCAR-8 ovarian,7.24 µM
same,TGI,OVCAR-8 ovarian,20.6 µM
same,GI50,PC-3 prostate,15.4 µM
same,TGI,PC-3 prostate,46.6 µM
same,GI50,RPMI-8226 leukemia,9.26 µM
same,TGI,RPMI-8226 leukemia,23.1 µM
same,GI50,RXF 393 renal,16.7 µM
same,TGI,RXF 393 renal,30.5 µM
same,GI50,SF-268 CNS,5.24 µM
same,TGI,SF-268 CNS,20.1 µM
same,GI50,SF-539 CNS,5.66 µM
same,TGI,SF-539 CNS,18.2 µM
same,GI50,SK-MEL-28 melanoma,16.2 µM
same,TGI,SK-MEL-28 melanoma,29.9 µM
same,TGI,SN12C renal,> 43.4 µM
same,GI50,SNB-19 CNS,18.3 µM
same,TGI,SNB-19 CNS,> 54.2 µM
same,GI50,SNB-75 CNS,4.68 µM
same,TGI,SNB-75 CNS,16.5 µM
same,GI50,SR leukemia,0.805 µM
same,TGI,SR leukemia,2.18 µM
same,GI50,SW-620 colon,6.05 µM
same,TGI,SW-620 colon,22.4 µM
same,GI50,T-47D breast,12.6 µM
same,TGI,T-47D breast,26.2 µM
same,GI50,U251 glioblastoma,12.2 µM
same,TGI,U251 glioblastoma,25.1 µM
same,GI50,UACC-257 melanoma,16.8 µM
same,TGI,UACC-257 melanoma,30.6 µM
same,GI50,UACC-62 melanoma,12 µM
same,TGI,UACC-62 melanoma,24.5 µM
same,GI50,UO-31 renal,14 µM
same,TGI,UO-31 renal,27.7 µM
